{
  "source": "patent US10011616B2",
  "about": "“Boron-containing small molecules as antiprotozoal1 agents” (MMV MEDICINES FOR MALARIA VENTURE, priority 2015, dated 2018)",
  "key": {"[1]": {"tested_on": "W2 strain of Plasmodium falciparum", "experiment": "In vitro activity against W2 strain of Plasmodium falciparum (YOYO-1 flow cytometry)", "assay_type": "cell-based", "conditions": "Erythrocyte, 48 h, P. falciparum W2 in human erythrocytes, 2 d, growth inhibition, read-out: IC50: 1 Org. Growth P. falciparum W2, 2 d (LPS_00451)", "protocol": "In Vitro Activity Against Plasmodium falciparum\nb) Against W2 Strain of Plasmodium falciparum\nW2 strain P. falciparum parasites were cultured in human erythrocytes and RPMI-1640 culture media with either 10% human serum or 0.5% Albumax serum substitute under 3% O2, 5% CO2, and 92% N2. Parasites synchronized to ring stage by treatments with 5% D-sorbitol were cultured with serial dilutions of benzoxaboroles from 5 to 10 mM stocks in 96 well microplate cultures including 200 μL of media/well, 2% hematocrit, and 1% parasitemia. At the completion of 48 h incubations, when untreated cultures contained new rings, parasites were fixed with 2% formaldehyde for 48 h, and 5 μL aliquots were transferred to another 96 well plate containing 150 μL/well of staining solution (100 mM NH4Cl, 0.1% Triton X-100, and 1 nM YOYO-1 in PBS). Parasites per erythrocyte were then determined by flow cytometry from plots of forward scatter against fluorescence (excitation 488 nm, emission 520 nm) using a FacSort flow cytometer (Beckton Dickinson) equipped with an AMS Loader (Cytek Development). All values were normalized to percent control activity, and IC50s were calculated using the Prism 3.0 program (GRAPHPAD Software). Goodness of fit was assessed by R^2 values, and meaningful dose-response curves yielded R^2 values >0.95."}, "[2]": {"tested_on": "3D7 strain of Plasmodium falciparum", "experiment": "In vitro activity against 3D7 strain of Plasmodium falciparum ([3H]-hypoxanthine incorporation assay)", "assay_type": "cell-based", "conditions": "Erythrocyte, 48 h, P. falciparum 3D7 in human erythrocytes, 2 d, growth inhibition, read-out: IC50: 1 Org. Growth P. falciparum 3D7, 2 d (LPS_00570)", "protocol": "In Vitro Activity Against Plasmodium falciparum a) Against 3D7 Strain of Plasmodium falciparum Inhibition of 3D7 strain parasites was assessed using the [^3H]-hypoxanthine incorporation assay (Desjardins, et al. Antimicrob. Agents Chemother. 1979, 16, 710-718). Briefly, parasites were cultured in human erythrocytes (from the Spanish Red Cross blood bank) using RPMI-1640 culture media (Gibco) supplemented with 0.5% Albumax II (Invitrogen), 2% D-sucrose (Sigma-Aldrich), 0.3% glutamine (Sigma-Aldrich), and 5 mM hypoxanthine (Sigma-Aldrich). Cultures were maintained at 37° C. at an atmosphere of 5% O2, 5% CO2, and […]. To assess inhibition, asynchronous parasite cultures with 0.5% parasitemia and 2% hematocrit were exposed to 3-fold serial dilutions of test compounds for 24 hours in 96 well plate cultures (Costar #3894). After 24 hours, [^3H]-hypoxanthine was added, plates were incubated for an additional 24 hours, and parasites were harvested on glass fiber filters (Wallac #1450-421) using a cell harvester 96 (TOMTEC, Perkin Elmer). Filters were dried on scintillator sheets (MeltiLex A, PerkinElmer #1450-441) to determine incorporation of [^3H]-hypoxanthine. Radioactivity was measured using a microbeta counter (Perkin Elmer). Data are normalized using the incorporation of the positive control (infected erythrocytes without drug). IC50 values were determined using Excel and Grafit 5 software. Values were determined from at least three independent experiments, and standard deviations were calculated."}},
  "note": "Where a name gives a salt, the structure may show the parent alone.",
  "data": [
    {"compound": "CCCC1(O)CN(C(=O)c2cnc(Oc3ccc4c(c3C)B(O)OC4)cn2)C1", "note": "[Example 56, (3-hydroxy-3-propylazetidin-1-yl) (5-((1-hydroxy-7-methyl-1,3-dihydrobenzo[c][1,2]oxaborol-6-yl)oxy)pyrazin-2-yl)methanone]", "values": [
      {"measurement": "IC50", "setting": "[1]", "result": 15.9, "unit": "nM"},
      {"measurement": "IC50", "setting": "[2]", "result": 137, "unit": "nM"}
    ]},
    {"compound": "Cc1c(Oc2cnc(C(=O)N[C@H]3CCC[C@@H]3O)cn2)ccc2c1B(O)OC2", "note": "[Example 46, 5-(1-hydroxy-7-methyl-1,3-dihydrobenzo[c][1,2]oxaborol-6-yloxy)-N-((1S,2S)-2-hydroxycyclopentyl)pyrazine-2-carboxamide]", "values": [
      {"measurement": "IC50", "setting": "[1]", "result": 149, "unit": "nM"},
      {"measurement": "IC50", "setting": "[2]", "result": 537, "unit": "nM"}
    ]},
    {"compound": "Cc1c(Oc2cnc(C(=O)N[C@H](C)CO)cn2)ccc2c1B(O)OC2", "note": "[Example 11]", "values": [
      {"measurement": "IC50", "setting": "[1]", "result": 944, "unit": "nM"},
      {"measurement": "IC50", "setting": "[2]", "result": 848, "unit": "nM"}
    ]},
    {"compound": "Cc1c(Oc2cnc(C(=O)N[C@@H](CO)C(C)C)cn2)ccc2c1B(O)OC2", "note": "[Example 25, (R)—N-(1-hydroxy-3-methylbutan-2-yl)-5-(1-hydroxy-7-methyl-1,3-dihydrobenzo[c][1,2]oxaborol-6-yloxy)pyrazine-2-carboxamide]", "values": [
      {"measurement": "IC50", "setting": "[1]", "result": 149, "unit": "nM"},
      {"measurement": "IC50", "setting": "[2]", "result": 466, "unit": "nM"}
    ]},
    {"compound": "Cc1c(Oc2cnc(C(=O)N[C@@H]3CCC[C@@H]3O)cn2)ccc2c1B(O)OC2", "note": "(relative stereo) [Example 49, 5-((1-hydroxy-7-methyl-1,3-dihydrobenzo[c][1,2]oxaborol-6-yl)oxy)-N-(cis-2-hydroxycyclopentyl)pyrazine-2-carboxamide]", "values": [
      {"measurement": "IC50", "setting": "[1]", "result": 292, "unit": "nM"},
      {"measurement": "IC50", "setting": "[2]", "result": 181, "unit": "nM"}
    ]},
    {"compound": "Cc1c(Oc2cnc(C(=O)N[C@@H](CO)CCC(F)(F)F)cn2)ccc2c1B(O)OC2", "note": "[Example 37, (R)-5-(1-hydroxy-7-methyl-1,3-dihydrobenzo[c][1,2]oxaborol-6-yloxy)-N-(5,5,5-trifluoro-1-hydroxypentan-2-yl)pyrazine-2-carboxamide]", "values": [
      {"measurement": "IC50", "setting": "[1]", "result": 230, "unit": "nM"},
      {"measurement": "IC50", "setting": "[2]", "result": 480, "unit": "nM"}
    ]},
    {"compound": "Cc1c(Oc2cnc(C(=O)NC(C)C(C)O)cn2)ccc2c1B(O)OC2", "note": "(centres unmarked) [Example 39, 5-(1-hydroxy-7-methyl-1,3-dihydrobenzo[c][1,2]oxaborol-6-yloxy)-N-(3-hydroxybutan-2-yl)pyrazine-2-carboxamide]", "values": [
      {"measurement": "IC50", "setting": "[1]", "result": 513, "unit": "nM"},
      {"measurement": "IC50", "setting": "[2]", "result": 1460, "unit": "nM"}
    ]},
    {"compound": "Cc1c(Oc2cnc(C(=O)NC(C)(C)CO)cn2)ccc2c1B(O)OC2", "note": "[Example 3, N-(1-hydroxy-2-methylpropan-2-yl)-5-(1-hydroxy-7-methyl-1,3-dihydrobenzo[c][1,2]oxaborol-6-yloxy)pyrazine-2-carboxamide]", "values": [
      {"measurement": "IC50", "setting": "[1]", "result": 290, "unit": "nM"},
      {"measurement": "IC50", "setting": "[2]", "result": 425, "unit": "nM"}
    ]},
    {"compound": "Cc1c(Oc2cnc(C(=O)N3CC(C)(O)C3)cn2)ccc2c1B(O)OC2", "note": "[Example 41, (3-hydroxy-3-methylazetidin-1-yl) (5-((1-hydroxy-7-methyl-1,3-dihydrobenzo[c][1,2]oxaborol-6-yl)oxy)pyrazin-2-yl)methanone]", "values": [
      {"measurement": "IC50", "setting": "[1]", "result": 32.6, "unit": "nM"},
      {"measurement": "IC50", "setting": "[2]", "result": 70.6, "unit": "nM"}
    ]},
    {"compound": "Cc1c(Oc2cnc(C(=O)N3CCNC[C@H]3CO)cn2)ccc2c1B(O)OC2", "note": "[Example 50, (S)-(5-(1-hydroxy-7-methyl-1,3-dihydrobenzo[c][1,2]oxaborol-6-yloxy)pyrazin-2-yl) (2-(hydroxymethyl)piperazin-1-yl)methanone Hydrochloric Acid Salt]", "values": [
      {"measurement": "IC50", "setting": "[1]", "result": 98.2, "unit": "nM"},
      {"measurement": "IC50", "setting": "[2]", "result": 171, "unit": "nM"}
    ]},
    {"compound": "Cc1c(Oc2cnc(C(=O)N[C@@H](CO)c3ccccc3)cn2)ccc2c1B(O)OC2", "note": "[Example 26, (R)—N-(2-hydroxy-1-phenylethyl)-5-(1-hydroxy-7-methyl-1,3-dihydrobenzo[c][1,2]oxaborol-6-yloxy)pyrazine-2-carboxamide]", "values": [
      {"measurement": "IC50", "setting": "[1]", "result": 103, "unit": "nM"},
      {"measurement": "IC50", "setting": "[2]", "result": 161, "unit": "nM"}
    ]},
    {"compound": "Cc1c(Oc2cnc(C(=O)NCC(C)O)cn2)ccc2c1B(O)OC2", "note": "(centres unmarked) [Example 9, 5-(1-hydroxy-7-methyl-1,3-dihydrobenzo[c][1,2]oxaborol-6-yloxy)-N-(2-hydroxypropyl)pyrazine-2-carboxamide]", "values": [
      {"measurement": "IC50", "setting": "[1]", "result": 1280, "unit": "nM"},
      {"measurement": "IC50", "setting": "[2]", "result": 1100, "unit": "nM"}
    ]},
    {"compound": "CCC[C@H](CO)NC(=O)c1cnc(Oc2ccc3c(c2C)B(O)OC3)cn1", "note": "[Example 14, (R)-5-(1-hydroxy-7-methyl-1,3-dihydrobenzo[c][1,2]oxaborol-6-yloxy)-N-(1-hydroxypentan-2-yl)pyrazine-2-carboxamide]", "values": [
      {"measurement": "IC50", "setting": "[1]", "result": 161, "unit": "nM"},
      {"measurement": "IC50", "setting": "[2]", "result": 201, "unit": "nM"}
    ]}
  ]
}
